We go through seven molecules from patent EP0311616B1, “COMBINATIONS OF GAMMA INTERFERONS AND ANTI-INFLAMMATORY OR ANTI-PYRETIC AGENTS FOR TREATING DISEASES” (BIOGEN, INC., priority 1986, dated 1987).

Data set [1] deals with BL/MEX6 human melanoma. Nature of the data set: six day Subrenal Capsule Assay, tumor xenograft implanted under the renal capsule of normal immunocompetent mice. The data set is classed as in vivo. The settings on record: for Avg. Δ Tumor Size (mean ± S.D.): change Day 6-Day 0; for Tumor Response: summary of Examples 1-3, IFN-γ i.m., cortisone and prednisone s.c., all other agents p.o., b.i.d., QD1-5, significance of inhibition vs control. An excerpt:
(§1) In each example, following the standardized protocol for the Subrenal Capsule™ Assay [A.E. Bogden, P.M. Haskell, D.J. LePage, D.E. Kelton, W.R. Cobb, H.J. Esber, "Growth Of Human Tumor Xenografts Implanted Under The Renal Capsule Of Normal Immunocompetent Mice", Exp. Cell Biology, 47, pp. 281-93 (1979)], we implanted BL/MEX6 human melanoma established in serial transplantation (Bogden Laboratories) under the renal capsule of normal, immunocompetent mice (BALB/c × DBA/2) F₁ (CDF₁) (Examples 1 and 2) and into (B6C3F₁) mice (Example 3). Each mouse weighed approximately 25 grams. We then divided the mice into treatment groups as follows: group 1: 10 mice, groups 2-7: 8 mice each.
Over a five-day period, we treated each of groups 4-7 of mice with one of the following anti-inflammatory agents or anti-pyretic agents, either singly or in combination with IFN-γ (IFN-γ dosage: 2,000 µg/Kg/inj., b.i.d., i.m.):
The anti-inflammatory agents or anti-pyretic agents were administered prior to IFN-γ in all combination treatment groups. In each example, we treated groups 1-3 of mice as follows: Group 1: 0.25 ml/inj., b.i.d., i.m. PBS (vehicle treated control) Group 2: 400 mg/Kg/inj., s.c. DTIC [dacarbazine] (positive chemotherapy control) Group 3: 2,000 µg/Kg/inj., b.i.d., i.m. IFN-γ
(§2) In each example, for each mouse, we recorded initial body weight, implanted a tumor and recorded an initial in situ tumor measurement (two diameters) in ocular micrometer units (omu). We administered treatment on days 1-5. Survivors were recorded and any mice dying prior to sacrifice were necropsied. On day 6, the mice were sacrificed, final body weights were recorded, implanted kidneys were removed and final in situ tumor measurements were made to determine tumor growth inhibition or regression. We calculated the ratio of average final body weight to initial body weight (FBW/IBW) to monitor systemic toxicity. Change in (Δ) tumor size between day of sacrifice (day 6) and day of tumor implant (day 0) was calculated individually and for each group.

For data set [2] the following is noted: day 6.
Description: as §1, §2

The mark [3] stands for this setting: Example 2, (BALB/c × DBA/2) F1 (CDF1) mice, treatment QD1-5 at doses of Table III.
The mark [4] stands for this setting: Example 2, CDF1 mice, treatment QD1-5 at doses of Table III, day 6.
Where [5] appears, read: Example 2, CDF1 mice, treatment QD1-5 at doses of Table III.
[6] abbreviates: Example 3, (B6C3F1) mice, treatment QD1-5 at doses of Table V.
The mark [7] stands for this setting: Example 3, B6C3F1 mice, treatment QD1-5 at doses of Table V, day 6.
The mark [8] stands for this setting: Example 3, B6C3F1 mice, treatment QD1-5 at doses of Table V.
[9] abbreviates: Example 1, (BALB/c × DBA/2) F1 (CDF1) mice, treatment QD1-5 at doses of Table I.
Setting [10] is: Example 1, CDF1 mice, treatment QD1-5 at doses of Table I, day 6.
[11] abbreviates: Example 1, CDF1 mice, treatment QD1-5 at doses of Table I.

Where two headings read alike, the source gives them in different places.

As for `CC(=O)Oc1ccccc1C(=O)O` [ASA, acetyl salicylic acid], the “Avg. Δ Tumor Size (mean ± S.D.)” value in data set [1] (setting [3]) worked out at 3.2±1.95 omu. Besides, in data set [1] (setting [4]), the “Percent Test/Control” value was 80% and the “Test-Control (Δ tumor size (test) minus Δ tumor size (control), degree of tumor inhibition)” value was -0.80 omu. Moreover, the “Tumor Response” value in data set [1] is “-”. The “FBW/IBW (Final Body Weight/Initial Body Weight)” value (from here on “FBW/IBW”) in data set [2] (setting [5]) is given as 0.93.

As to `CC(=O)Nc1ccc(O)cc1` [Acetaminophen], in data set [1] (setting [3]), the “Avg. Δ Tumor Size (mean ± S.D.)” value was determined as 1.9±1.46 omu. For the same molecule, in data set [1] (setting [4]), the “Percent Test/Control” value is on record as 48% and the “Test-Control (Δ tumor size (test) minus Δ tumor size (control), degree of tumor inhibition)” value is on record as -2.10 omu. Besides, in data set [1], the “Tumor Response” value was “++ (Significant inhibition p<0.01)”.

As for `C[C@]12CCC(=O)C=C1CC[C@@H]1[C@@H]2C(=O)C[C@@]2(C)[C@H]1CC[C@]2(O)C(=O)CO` [Cortisone], the “Avg. Δ Tumor Size (mean ± S.D.)” value in data set [1] (setting [6]) was determined as 1.3±1.73 omu. Further, in data set [1] (setting [7]), the “Percent Test/Control” value was found to be 37% and the “Test-Control (Δ tumor size (test) minus Δ tumor size (control), degree of tumor inhibition)” value is -2.20 omu. The “Tumor Response” value in data set [1] was “+ (Significant inhibition p<0.05)”. For the same molecule, the “FBW/IBW” value in data set [2] (setting [8]) was 0.96.

With `CN(C)/N=N/c1[nH]cnc1C(N)=O` [DTIC, dacarbazine], the “Avg. Δ Tumor Size (mean ± S.D.)” value in data set [1] (setting [9]) was 0.5±0.7 omu; in data set [1] (setting [3]), -0.2±0.70 omu; in data set [1] (setting [6]), -0.2±1.00 omu. The “Percent Test/Control” value in data set [1] (setting [10]) is recorded as 14%. For the same molecule, the “Test-Control (Δ tumor size (test) minus Δ tumor size (control), degree of tumor inhibition)” value in data set [1] (setting [10]) is -3.20 omu; in data set [1] (setting [4]), -4.20 omu; in data set [1] (setting [7]), -3.70 omu. For the same molecule, the “R = regression from original size using the formula FTS (final tumor size)-ITS (initial tumor size)/ITS x 100” value in data set [1] (Example 2, CDF1 mice, printed as R plus number in the Percent Test/Control column, day 6) is reported as “R2%”. Besides, the “R = regression from original size using the formula (FTS-ITS)/ITS x 100” value in data set [1] (Example 3, B6C3F1 mice, printed as R plus number in the Percent Test/Control column, day 6) is recorded as “R2%”. Moreover, the “FBW/IBW” value was 0.86 in data set [2] (setting [11]), 0.81 in data set [2] (setting [5]) and 0.81 in data set [2] (setting [8]).

`COc1ccc2c(c1)c(CC(=O)O)c(C)n2C(=O)c1ccc(Cl)cc1` [Indomethacin]: in data set [1] (setting [9]), the “Avg. Δ Tumor Size (mean ± S.D.)” value amounted to 3.1±1.69 omu. In addition, in data set [1] (setting [10]), the “Percent Test/Control” value is reported as 84% and the “Test-Control (Δ tumor size (test) minus Δ tumor size (control), degree of tumor inhibition)” value is on record as -0.60 omu. In addition, the “Tumor Response” value in data set [1] was “-”. In data set [2] (setting [11]), the “FBW/IBW” value was found to be 0.98.

Consider `COc1ccc2cc([C@H](C)C(=O)O)ccc2c1` [Naproxen], for which the “Avg. Δ Tumor Size (mean ± S.D.)” value in data set [1] (setting [9]) is 2.8±1.28 omu. Also, in data set [1] (setting [10]), the “Percent Test/Control” value was found to be 76% and the “Test-Control (Δ tumor size (test) minus Δ tumor size (control), degree of tumor inhibition)” value is -0.90 omu. The “Tumor Response” value in data set [1] is recorded as “-”. In addition, in data set [2] (setting [11]), the “FBW/IBW” value is 0.99.

For `C[C@]12C=CC(=O)C=C1CC[C@@H]1[C@@H]2C(=O)C[C@@]2(C)[C@H]1CC[C@]2(O)C(=O)CO` [Prednisone], the “Avg. Δ Tumor Size (mean ± S.D.)” value in data set [1] (setting [6]) stood at 0.6±1.57 omu. Also, in data set [1] (setting [7]), the “Percent Test/Control” value is reported as 17% and the “Test-Control (Δ tumor size (test) minus Δ tumor size (control), degree of tumor inhibition)” value is -2.90 omu. In data set [1], the “Tumor Response” value was “++ (Significant inhibition p<0.01)”.
